The subject of assay [1] is up-regulation of ICAM-1 (CD54) by IFNγ in A549 lung epithelial cells. The assay is described as follows: A549 Epithelial Line Stimulated with IFNγ (ICAM-1 surface expression, FACS). The format is cell-based, human. The conditions noted are these: A549 epithelial line stimulated with IFNγ; ICAM-1 expression by FACS; read-out: IC50, Example 43. The gist of the method: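 ICAM-1 (CD54) flow cytometry on live-gated A549 cells, geometric mean versus dose giving EC50. Cells received IFNγ at 75 ng/mL for 24 h after a 1 h compound pre-treatment spanning 30 μM to 14 nM in medium with 5% FBS and 0.3% DMSO.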

The test system of a further assay is Primary human T-cells. The assay is described as follows: Primary Human T-Cell Proliferation Assay Stimulated with IL-2 (CellTiter-Glo). The format is cell-based. The conditions noted are these: primary human T-cell proliferation stimulated with IL-2; read-out: IC50, Example 42. The gist of the method:
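IC50 derived from CellTiter-Glo ATP signal after 72 hours of IL-2-driven proliferation at 37° C. Cells: primary human T-cells from blood, stimulated beforehand 3-4 days on anti-CD3/anti-CD28 with IL-2, then rested from IL-2 before compound exposure in duplicate; IL-2-free wells served as unstimulated control.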

For “5-Fluoro-N4-[4-(3-methyl-1,2,4-oxadiazol-3-yl)methyleneoxyphenyl]-N2-[(3-N-propanamido)sulfonylphenyl)]-2,4-pyrimidinediamine [Compound I-262]”, the IC50 in assay [1] came to 3680 nM; in the assay with Primary human T-cells, 164 nM.
In the same order, the values of `Cc1ccc(Nc2ncc(F)c(Nc3ccc(OC4CCCN(C)C4)c(Cl)c3)n2)cc1S(N)(=O)=O` (racemic) [II-3, Racemic N2-(3-aminosulfonyl-4-methylphenyl)-N4-{3-chloro-4-[(1-methylpiperidin-3-yl)oxy]phenyl}-5-fluoro-2,4-pyrimidinediamine] are 11900 nM and 918 nM.
For `N#CCOc1ccc(Nc2nc(Nc3cccc(S(N)(=O)=O)c3)ncc2F)cc1` [Compound I-17, N2-(3-Aminosulfonyl)phenyl-N4-(4-cyanomethoxy)phenyl-5-fluoro-2,4-pyrimidinediamine], the half-inhibitory concentration (IC50) was determined as 2350 nM in assay [1] and 43.2 nM in the assay with Primary human T-cells.
`Cc1cc(COc2ccc(Nc3nc(Nc4ccc(F)c(S(N)(=O)=O)c4)ncc3F)cc2C)no1` [Compound I-237, N2-(3-Aminosulfonyl-4-fluorophenyl)-5-fluoro-N4-[3methyl-4-(5-methylisoxazol-3-yl)methyleneoxyphenyl]-2,4-pyrimidinediamine]: in the assay with Primary human T-cells, the IC50 is 2040 nM.
Same read-out and setting: for `Cc1cc(COc2ccc(Nc3nc(Nc4cccc(S(N)(=O)=O)c4)ncc3F)cc2C)no1` [Compound I-238, N2-(3-Aminosulfonylphenyl)-5-fluoro-N4-[3-methyl-4-(5-methylisoxazol-3-yl)methyleneoxyphenyl]-2,4-pyrimidinediamine] the value was 456 nM.
On the same count and under the same terms, for `CCN(CC)CCNS(=O)(=O)c1cccc(Nc2ncc(F)c(Nc3ccc(OCc4cc(C)on4)cc3)n2)c1` [Compound I-241, N2-[3-(2-N,N-Diethylaminoethyl)aminosulfonylphenyl)-5-fluoro-N4-[4-(5-methylisoxazol-3-yl)methyleneoxyphenyl]-2,4-pyrimidinediamine] the value was 442 nM; for `Cc1cc(COc2ccc(Nc3nc(Nc4cccc(S(=O)(=O)N(Cc5oc(=O)oc5C)Cc5oc(=O)oc5C)c4)ncc3F)cc2)no1` [Compound I-248, N2-{3-[N-N-Di-[(5-Methyl-1,3-dioxolene-2-one-4-yl)methylene]]aminosulfonylphenyl}-5-fluoro-N4-[4-(5-methylisoxazol-3-yl)methyleneoxyphenyl]-2,4-pyrimidinediamine], 138 nM; for `CCN(CC)CCNS(=O)(=O)c1ccc(Nc2ncc(F)c(Nc3cccc(OCc4nc(C)no4)c3)n2)cc1` [Compound I-256, N2-[4-(2-N,N-Diethylaminoethyl)aminosulfonylphenyl)-5-fluoro-N4-[3-(3-methyl-1,2,4-oxadiazol-5-yl)methyleneoxyphenyl]-2,4-pyrimidinediamine], 38200 nM.
In the case of `Cc1noc(COc2ccc(Nc3nc(Nc4cccc(S(N)(=O)=O)c4)ncc3F)cc2)n1` [Compound I-258, N2-(3-Aminosulfonylphenyl)-5-fluoro-N4-[4-(3-methyl-1,2,4-oxadiazol-5-yl)methyleneoxyphenyl]-2,4-pyrimidinediamine], the half-inhibitory concentration (IC50) in the assay on Primary human T-cells amounted to 55.4 nM.
On the same count and under the same terms, for `CCN(CC)CCNS(=O)(=O)c1ccc(Nc2ncc(F)c(Nc3ccc(OCc4nc(C)no4)cc3)n2)cc1` [Compound I-263, N2-[4-(2-N,N-Diethylaminoethyl)aminosulfonylphenyl)-5-fluoro-N4-[4-(3-methyl-1,2,4-oxadiazol-5-yl)methyleneoxyphenyl]-2,4-pyrimidinediamine] the value was 64.4 nM; for `Cc1noc(COc2ccc(Nc3nc(Nc4ccc(F)c(S(N)(=O)=O)c4)ncc3F)cc2)n1` [Compound I-266, N2-(3-Aminosulfonyl-4-fluorophenyl)-5-fluoro-N4-[4-(3-methyl-1,2,4-oxadiazol-5-yl)methyleneoxyphenyl]-2,4-pyrimidinediamine], 201 nM.
Same read-out and setting: for `Cc1noc(CCc2ccc(Nc3nc(Nc4ccc(F)c(S(N)(=O)=O)c4)ncc3F)cc2)n1` [Compound I-267, N2-(3-Aminosulfonyl-4-fluorophenyl)-5-fluoro-N4-[4-(3-methyl-1,2,4-oxadiazol-5-yl)ethylenephenyl]-2,4-pyrimidinediamine] the value was 2020 nM; for `Cc1nc(COc2ccc(Nc3nc(Nc4ccc(S(N)(=O)=O)cc4)ncc3F)cc2)no1` [Compound I-275, N2-(4-Aminosulfonyl)phenyl-5-fluoro-N4-[4-(5-methyl-1,2,4-oxadiazol-3-yl)methoxy]phenyl-2,4-pyrimidinediamine], 577 nM.
Take `Cc1nc(COc2ccc(Nc3nc(Nc4ccc(C)c(S(N)(=O)=O)c4)ncc3F)cc2)cs1` [Compound I-280, N2-(3-Aminosulfonyl-4-methylphenyl)-5-fluoro-N4-[4-(2-methylthiazol-4-yl)methyleneoxyphenyl]-2,4-pyrimidinediamine]: in the assay on Primary human T-cells, the IC50 is 978 nM.
Same read-out and setting: to `Cc1nc(COc2ccc(Nc3nc(Nc4cccc(S(N)(=O)=O)c4)ncc3F)cc2)cs1` [Compound I-281, N2-(3-Aminosulfonylphenyl)-5-fluoro-N4-[4-(2-methylthiazol-4-yl)methyleneoxyphenyl]-2,4-pyrimidinediamine] belongs 90.4 nM; to `CNS(=O)(=O)c1cc(Nc2ncc(F)c(Nc3ccc(OCc4csc(C)n4)cc3)n2)ccc1C` [Compound I-282, 5-Fluoro-N2-[3-(N-methylaminosulfony)-4-methylphenyl]-N4-[4-(2-methylthiazol-4-yl)methyleneoxyphenyl]-2,4-pyrimidinediamine], 697 nM; to `CCN(CC)CCNS(=O)(=O)c1cccc(Nc2ncc(F)c(Nc3ccc(OCc4csc(C)n4)cc3)n2)c1` [Compound I-283, N2-[3-(2-N,N-Diethylaminoethyl)aminosulfonylphenyl)-5-fluoro-N4-[4-(2-methylthizol-4-yl)methyleneoxyphenyl]-2,4-pyrimidinediamine], 362 nM.
Still for that read-out and setting: to `CCN(CC)CCNS(=O)(=O)c1ccc(Nc2ncc(F)c(Nc3ccc(OCc4csc(C)n4)cc3)n2)cc1` [Compound I-284, N2-[4-(2-N,N-Diethylaminoethyl)aminosulfonylphenyl)-5-fluoro-N4-[4-(2-methylthizol-4-yl)methyleneoxyphenyl]-2,4-pyrimidinediamine] belongs 421 nM.
On the same count and under the same terms, to `Cc1nc(COc2ccc(Nc3nc(Nc4ccc(S(N)(=O)=O)cc4)ncc3F)cc2)cs1` [Compound I-285, N2-(4-Aminosulfonylphenyl)-5-fluoro-N4-[4-(2-methylthiazol-4-yl)methyleneoxyphenyl]-2,4-pyrimidinediamine] belongs 314 nM; to `CN1CCC(Oc2ccc(Nc3nc(Nc4cccc(S(N)(=O)=O)c4)ncc3F)cc2)C1` (stereo not drawn) [II-9, N2-(3-Aminosulfonylphenyl)-5-fluoro-N4-(N-methylpyrrolidin-3-yloxyphenyl)-2,4-pyrimidinediamine], 1320 nM.
Turning to `Cc1ccc(Nc2ncc(F)c(Nc3ccc(OC4CCN(C)C4)cc3)n2)cc1S(N)(=O)=O` (stereo not drawn) [II-10, N2-(3-Aminosulfonyl-4-methylphenyl)-5-fluoro-N4-(N-methylpyrrolidin-3-yloxyphenyl)-2,4-pyrimidinediamine], the IC50 in the assay on Primary human T-cells was 876 nM.
On to `CNS(=O)(=O)c1cc(Nc2ncc(F)c(Nc3ccc(CC#N)cc3)n2)ccc1C` [III-1, 5-Fluoro-N2-[3-(N-methylaminosulfony)-4-methylphenyl]-5-fluoro-N4-(4-cyanomethylphenyl)-2,4-pyrimidinediamine], for which the IC50 with Primary human T-cells was determined as 545 nM.
Same read-out and setting: for `CCN(CC)CCNS(=O)(=O)c1ccc(Nc2ncc(F)c(Nc3ccc(CC#N)cc3)n2)cc1` [III-2, N2-[4-(2-N,N-Diethylaminoethyl)aminosulfonylphenyl)-5-fluoro-N4-(4-cyanomethylphenyl)-2,4-pyrimidinediamine] the value was 3440 nM; for `N#CCc1ccc(Nc2nc(Nc3ccc(F)c(S(N)(=O)=O)c3)ncc2F)cc1` [III-10, N2-(3-Aminosulfonyl-4-fluoro)phenyl-N4-(4-cyanomethyl)phenyl-5-fluoro-2,4-pyrimidinediamine], 922 nM; for `Cc1cnc(Nc2ccc(S(N)(=O)=O)cc2)nc1Nc1ccc(CCC#N)cc1` [III-27, N2-(4-Aminosulfonylphenyl)-N4-(4-cyanoethylenephenyl)-5-methyl-2,4-pyrimidinediamine], 119 nM.
Still for that read-out and setting: to `N#CCCc1ccc(Nc2nc(Nc3cccc(S(N)(=O)=O)c3)ncc2F)cc1C(F)(F)F` [III-31, N4-(4-Cyanoethylene-3-trifluoromethylphenyl)-5-fluoro-N2-(3-aminosulfonylphenyl)-2,4-pyrimidinediamine] belongs 328 nM.
On the same count and under the same terms, to `Cc1ccc(Nc2ncc(F)c(Nc3cccc(CNC(=O)C4CC4)c3)n2)cc1S(N)(=O)=O` [III-40, N2-(3-aminosulfonyl-4-methyl)phenyl-N4-(3-cyclopropylcarbonylaminomethyl)phenyl-5-fluoro-2,4-pyrimidinediamine] belongs 229 nM; to `NS(=O)(=O)c1cccc(Nc2ncc(F)c(Nc3ccc(Cc4ccncc4)cc3)n2)c1` [III-70, N2-(3-Aminosulfonylphenyl)-5-fluoro-N4-[4-(4-pyridinylmethyl)phenyl]-2,4-pyrimidinediamine], 169 nM; to “N2-(3-Aminocarbonyl-5-methylphenyl)-5-fluoro-N2-[4-(1-ethylpyrazol-5-yl)amidophenyl)-2,4-pyrimidinediamine [II-20]”, 969 nM.
In the case of “N2-(3-Aminocarbonyl-5-methylphenyl)-5-fluoro-N2-[4-(1-methylpyrazol-5-yl)amidophenyl)-2,4-pyrimidinediamine [II-21]”, the IC50 in the assay with Primary human T-cells is 1760 nM.

What is called IC50 is the midpoint of a concentration-inhibition curve.

Values taken from US11827628B2, “Compositions and methods for inhibition of the JAK pathway” (Rigel Pharmaceuticals, Inc., priority 2005, dated 2023).
